Source: US9573956B2, “Compounds as dual inhibitors of phosphodiesterases and histone deacetylases” (FUNDACIÓN PARA LA INVESTIGACIÓN MÉDICA APLICADA, priority 2013, dated 2017)
Read-outs that look alike come from different tables or passages of the source.

Experiments:
Type in all cases: biochemical
[1] = target: T1, PDE5A (Homo sapiens, UniProt O76074); assay: PDE enzyme activity assay (HTRF cGMP), PDE5A
T1 construct: they are full-length with N-terminal GST tag; GST (N); purchased BPS Biosciences 60050; host or cells: baculovirus infected Sf9 cells

[2] = target: T2, HDAC2 (Homo sapiens, UniProt Q92769); assay: HDAC enzyme activity assay (fluorogenic substrate), HDAC2
T2 construct: NM_001527; Cat. #50002) is full-length with C-terminal his tag; His (C); purchased BPS Biosciences 50002; host or cells: baculovirus infected Sf9 cells
T2 sequence (Q92769 whole entry): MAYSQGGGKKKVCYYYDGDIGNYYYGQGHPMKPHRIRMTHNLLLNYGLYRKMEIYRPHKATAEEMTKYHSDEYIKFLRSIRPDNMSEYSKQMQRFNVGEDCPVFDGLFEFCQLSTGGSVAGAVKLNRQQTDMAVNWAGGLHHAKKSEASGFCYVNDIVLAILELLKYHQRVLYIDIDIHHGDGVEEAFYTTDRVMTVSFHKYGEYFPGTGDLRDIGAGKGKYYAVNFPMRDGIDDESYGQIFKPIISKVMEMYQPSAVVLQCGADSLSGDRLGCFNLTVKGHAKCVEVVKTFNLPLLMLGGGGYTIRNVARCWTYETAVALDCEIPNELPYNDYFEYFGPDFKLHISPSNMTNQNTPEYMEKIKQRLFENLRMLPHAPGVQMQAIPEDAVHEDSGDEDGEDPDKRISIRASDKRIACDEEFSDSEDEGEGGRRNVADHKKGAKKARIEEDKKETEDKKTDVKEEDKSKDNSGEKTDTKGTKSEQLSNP

[3] = target: HDAC1 (Homo sapiens, UniProt Q13547); assay: HDAC enzyme activity assay (fluorogenic substrate), HDAC1
Sequence of HDAC1 (Q13547 whole entry): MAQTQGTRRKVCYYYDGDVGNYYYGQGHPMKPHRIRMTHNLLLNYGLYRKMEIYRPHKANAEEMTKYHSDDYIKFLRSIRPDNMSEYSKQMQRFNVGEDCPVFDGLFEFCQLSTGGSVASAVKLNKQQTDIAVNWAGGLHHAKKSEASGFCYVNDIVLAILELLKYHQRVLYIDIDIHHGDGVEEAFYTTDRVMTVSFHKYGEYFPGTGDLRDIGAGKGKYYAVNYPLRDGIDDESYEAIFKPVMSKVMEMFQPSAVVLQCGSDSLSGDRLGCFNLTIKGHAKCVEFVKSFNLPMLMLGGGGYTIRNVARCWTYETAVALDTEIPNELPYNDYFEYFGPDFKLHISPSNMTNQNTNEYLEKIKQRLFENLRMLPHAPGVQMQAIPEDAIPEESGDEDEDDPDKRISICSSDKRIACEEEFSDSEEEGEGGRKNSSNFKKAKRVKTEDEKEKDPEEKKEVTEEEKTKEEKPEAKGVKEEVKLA

[4] = target: T3, HDAC6 (Homo sapiens, UniProt Q9UBN7); assay: HDAC enzyme activity assay (fluorogenic substrate), HDAC6
T3 construct: BC069243; Cat. #50006) is full-length with N-terminal GST tag; GST (N); purchased BPS Biosciences 50006; host or cells: baculovirus infected Sf9 cells
T3 sequence (Q9UBN7 1-1215): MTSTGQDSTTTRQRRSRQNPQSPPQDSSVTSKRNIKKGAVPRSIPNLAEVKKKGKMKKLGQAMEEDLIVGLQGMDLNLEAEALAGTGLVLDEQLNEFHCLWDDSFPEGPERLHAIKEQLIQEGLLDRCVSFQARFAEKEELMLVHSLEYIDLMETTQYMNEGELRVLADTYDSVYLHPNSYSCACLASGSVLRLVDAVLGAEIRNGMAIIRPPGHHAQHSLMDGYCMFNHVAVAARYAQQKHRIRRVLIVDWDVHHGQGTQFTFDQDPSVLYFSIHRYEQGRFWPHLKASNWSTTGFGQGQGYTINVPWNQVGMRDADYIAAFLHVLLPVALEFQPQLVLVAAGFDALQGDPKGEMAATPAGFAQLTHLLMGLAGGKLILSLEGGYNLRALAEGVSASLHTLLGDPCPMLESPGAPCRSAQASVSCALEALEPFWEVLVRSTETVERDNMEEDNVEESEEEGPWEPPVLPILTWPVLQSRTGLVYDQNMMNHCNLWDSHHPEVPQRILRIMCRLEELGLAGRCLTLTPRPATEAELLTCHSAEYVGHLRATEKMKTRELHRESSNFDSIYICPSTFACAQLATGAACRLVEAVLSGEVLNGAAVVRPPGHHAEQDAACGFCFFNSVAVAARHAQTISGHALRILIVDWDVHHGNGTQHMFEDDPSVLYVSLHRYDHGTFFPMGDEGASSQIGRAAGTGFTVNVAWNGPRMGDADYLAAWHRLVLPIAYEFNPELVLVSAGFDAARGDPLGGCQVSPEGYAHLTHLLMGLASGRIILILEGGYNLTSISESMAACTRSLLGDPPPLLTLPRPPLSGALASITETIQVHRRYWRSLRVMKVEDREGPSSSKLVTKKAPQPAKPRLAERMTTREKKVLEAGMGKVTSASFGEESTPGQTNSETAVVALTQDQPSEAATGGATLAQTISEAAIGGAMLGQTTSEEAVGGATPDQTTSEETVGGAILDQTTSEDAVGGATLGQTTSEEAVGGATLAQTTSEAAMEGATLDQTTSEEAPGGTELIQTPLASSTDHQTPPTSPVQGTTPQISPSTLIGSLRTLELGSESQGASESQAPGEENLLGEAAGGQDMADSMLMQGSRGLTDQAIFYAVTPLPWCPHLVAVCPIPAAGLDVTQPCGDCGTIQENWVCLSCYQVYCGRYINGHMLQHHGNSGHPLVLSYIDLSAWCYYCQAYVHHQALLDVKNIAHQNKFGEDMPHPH

[5] = recombinant enzyme, read-out: PDE5A1 inhibition (IC50)
[6] = recombinant enzyme, read-out: HDAC2 inhibition (IC50)
[7] = recombinant enzyme, read-out: HDAC1 inhibition (IC50)
[8] = recombinant enzyme, read-out: HDAC6 inhibition (IC50)
[9] = comparative examples, inactive, read-out: HDAC2 IC50
[10] = comparative examples, inactive, read-out: HDAC1 IC50
[11] = comparative examples, inactive, read-out: HDAC6 IC50

Compound | IC50 [1, 5] [nM] | IC50 [2, 6] [nM] | IC50 [3, 7] [nM] | IC50 [4, 8] [nM] | IC50 [2, 9] [nM] | IC50 [3, 10] [nM] | IC50 [4, 11] [nM] | IC50 ([1]; comparative example, read-out: PDE5A1 IC50) [nM]
CCCc1nc(C)c2c(=O)[nH]c(-c3cc(S(=O)(=O)N(C)CC(=O)N(C)OC)ccc3OCC)nn12 [Comparative Example 2-01, 2-[[4-ethoxy-3-(5-methyl-4-oxo-7-propyl-3H-imidazo[5,1-f][1,2,4]triazin-2-yl)phenyl]sulfonyl-methyl-amino]-N-methoxy-N-methyl-acetamide, reference compound] | – | – | – | – | > 20000 | > 20000 | > 20000 | –
CCCc1nc(C)c2c(=O)[nH]c(-c3cc(CC4CC(C(=O)N(C)OC)C4)ccc3OCC)nn12 (stereo not drawn) [Comparative Example 2-02, 3-[[4-ethoxy-3-(5-methyl-4-oxo-7-propyl-3H-imidazo[5,1-f][1,2,4]triazin-2-yl)phenyl]methyl]-N-methoxy-N-methylcyclobutanecarboxamide, reference compound] | – | – | – | – | > 20000 | > 20000 | > 20000 | < 10
CCCc1nn(C)c2c(=O)[nH]c(-c3cc(S(=O)(=O)N4CCN(CCC(=O)NO)CC4)ccc3OCC)nc12 [Example 1-04, 3-(4-[3-(6,7-Dihydro-1-methyl-7-oxo-3-propyl-1H-pyrazolo[4,3-d]pyrimidin-5-yl)-4-ethoxyphenylsulfonyl]piperazin-1-yl)-N-hydroxypropanamide] | < 10 | > 10000 | 1000 to 10000 | – | – | – | – | –
CCCc1nn(C)c2c(=O)[nH]c(-c3cc(S(=O)(=O)N4CCN(CCCC(=O)NO)CC4)ccc3OCC)nc12 [Example 1-05] | < 10 | 1000 to 10000 | 1000 to 10000 | – | – | – | – | –
CCCc1nn(C)c2c(=O)[nH]c(-c3cc(Nc4ccc(C(=O)NO)cc4)ccc3OCC)nc12 [Example 1-21, 4-[4-ethoxy-3-(1-methyl-7-oxo-3-propyl-6H-pyrazolo[4,3-d]pyrimidin-5-yl)anilino]benzenecarbohydroxamic acid] | < 10 | > 10000 | 10 to 1000 | 10 to 1000 | – | – | – | –
CCCc1nn(C)c2c(=O)[nH]c(-c3cc(NCC4CCN(c5ncc(C(=O)NO)cn5)CC4)ccc3OCC)nc12 [Example 1-23] | 10 to 1000 | 10 to 1000 | 10 to 1000 | 10 to 1000 | – | – | – | –
CCCc1nn(C)c2c(=O)[nH]c(-c3cc(NCCC(=O)NO)ccc3OCC)nc12 [Example 1-33, 3-[4-ethoxy-3-(1-methyl-7-oxo-3-propyl-6H-pyrazolo[4,3-d]pyrimidin-5-yl)anilino]propanehydroxamic acid] | 10 to 1000 | > 10000 | 1000 to 10000 | > 10000 | – | – | – | –
CCCc1nn(C)c2c(=O)[nH]c(-c3cc(-c4ccc(CC(=O)NO)cc4)ccc3OCC)nc12 [Example 1-34] | 10 to 1000 | > 10000 | > 10000 | 10 to 1000 | – | – | – | –
CCCc1nn(C)c2c(=O)[nH]c(-c3cc(Oc4ccc(C(=O)NO)cc4)ccc3OCC)nc12 [Example 1-37, 4-[4-ethoxy-3-(1-methyl-7-oxo-3-propyl-6H-pyrazolo[4,3-d]pyrimidin-5-yl)phenoxy]benzenecarbohydroxamic acid] | 10 to 1000 | 1000 to 10000 | 10 to 1000 | 10 to 1000 | – | – | – | –
CCCc1nn(C)c2c(=O)[nH]c(-c3cc(CC4CCN(c5ccc(C(=O)NO)cn5)CC4)ccc3OCC)nc12 [Example 1-39] | 10 to 1000 | 1000 to 10000 | 1000 to 10000 | 10 to 1000 | – | – | – | –
CCCc1nn(C)c2c(=O)[nH]c(-c3cc(C4=CCC(CC(=O)NO)CC4)ccc3OCC)nc12 (stereo not drawn) [Example 1-42] | 10 to 1000 | > 10000 | 1000 to 10000 | 10 to 1000 | – | – | – | –
(1R,2R)-2-(1-(4,4-difluorocyclohexyl)-3a,4,5,7a-tetrahydro-4-oxo-1H-pyrazolo[3,4-d]pyrimidin-6-yl)-N-methoxy-N-methylcyclobutanecarboxamide [Comparative Example 3-01, reference compound] | – | – | – | – | > 20000 | > 20000 | > 20000 | –

Continued, values first:

IC50 [1, 5] [nM] | IC50 [2, 6] [nM] | IC50 [3, 7] [nM] | IC50 [4, 8] [nM] | IC50 [2, 9] [nM] | IC50 [3, 10] [nM] | IC50 [4, 11] [nM] | IC50 ([1]; comparative example, read-out: PDE5A1 IC50) [nM] | Compound
10 to 1000 | > 10000 | 1000 to 10000 | 10 to 1000 | – | – | – | – | CCCc1nn(C)c2c(=O)[nH]c(-c3cc(CC4CCC(CC(=O)NO)CC4)ccc3OCC)nc12 (racemic) [Example 1-43]
< 10 | > 10000 | 1000 to 10000 | > 10000 | – | – | – | – | CCCc1nn(C)c2c(=O)[nH]c(-c3cc(C(=O)NO)ccc3OCC)nc12 [Example 1-27, 4-ethoxy-3-(1-methyl-7-oxo-3-propyl-6H-pyrazolo[4,3-d]pyrimidin-5-yl)benzenecarbohydroxamic acid]
10 to 1000 | > 10000 | 10 to 1000 | 10 to 1000 | – | – | – | – | CCCc1nn(C)c2c(=O)[nH]c(-c3cc(CC4CCC(C(=O)NO)CC4)ccc3OCC)nc12 (stereo not drawn) [Example 1-28, 4-[[4-ethoxy-3-(1-methyl-7-oxo-3-propyl-6H-pyrazolo[4,3-d]pyrimidin-5-yl)phenyl]methyl]cyclohexanecarbohydroxamic acid]
10 to 1000 | > 10000 | 1000 to 10000 | 1000 to 10000 | – | – | – | – | CCCc1nn(C)c2c(=O)[nH]c(-c3cc(CCC(=O)NO)ccc3OCC)nc12 [Example 1-31, 3-[4-ethoxy-3-(1-methyl-7-oxo-3-propyl-6H-pyrazolo[4,3-d]pyrimidin-5-yl)phenyl]propanehydroxamic acid]
< 10 | > 10000 | – | 1000 to 10000 | – | – | – | – | CCCc1nn(C)c2c(=O)[nH]c(-c3cc(CC4CCN(CC(=O)NO)CC4)ccc3OCC)nc12 [Example 1-32]
10 to 1000 | > 10000 | 1000 to 10000 | 1000 to 10000 | – | – | – | – | CCCc1nn(C)c2c(=O)[nH]c(-c3cc(N4CCC(C(=O)NO)CC4)ccc3OCC)nc12 [Example 1-35, 1-[4-ethoxy-3-(1-methyl-7-oxo-3-propyl-6H-pyrazolo[4,3-d]pyrimidin-5-yl)phenyl]piperidine-4-carbohydroxamic acid]
10 to 1000 | > 10000 | 1000 to 10000 | 1000 to 10000 | – | – | – | – | CCCc1nn(C)c2c(=O)[nH]c(-c3cc(CN4CCC(C(=O)NO)CC4)ccc3OCC)nc12 [Example 1-36, 1-[[4-ethoxy-3-(1-methyl-7-oxo-3-propyl-6H-pyrazolo[4,3-d]pyrimidin-5-yl)phenyl]methyl]piperidine-4-carbohydroxamic acid]
10 to 1000 | > 10000 | 1000 to 10000 | 10 to 1000 | – | – | – | – | CCCc1nn(C)c2c(=O)[nH]c(-c3cc(C4=CCC(C(=O)NO)CC4)ccc3OCC)nc12 (stereo not drawn) [Example 1-38, 4-[4-ethoxy-3-(1-methyl-7-oxo-3-propyl-6H-pyrazolo[4,3-d]pyrimidin-5-yl)phenyl]cyclohex-3-ene-1-carbohydroxamic acid]
10 to 1000 | > 10000 | > 10000 | 1000 to 10000 | – | – | – | – | CCCc1nn(C)c2c(=O)[nH]c(-c3cc(C4CCC(C(=O)NO)CC4)ccc3OCC)nc12 (stereo not drawn) [Example 1-41, 4-[4-ethoxy-3-(1-methyl-7-oxo-3-propyl-6H-pyrazolo[4,3-d]pyrimidin-5-yl)phenyl]cyclohexanecarbohydroxamic acid]
10 to 1000 | > 10000 | > 10000 | 1000 to 10000 | – | – | – | – | CCCc1nn(C)c2c(=O)[nH]c(-c3cc(CC4CCN(C(=O)NO)CC4)ccc3OCC)nc12 [Example 1-49, 4-[[4-ethoxy-3-(1-methyl-7-oxo-3-propyl-6H-pyrazolo[4,3-d]pyrimidin-5-yl)phenyl]methyl]piperidine-1-carbohydroxamic acid]
10 to 1000 | > 10000 | 1000 to 10000 | 1000 to 10000 | – | – | – | – | CCCc1nn(C)c2c(=O)[nH]c(-c3cc(C4CCC(CC(=O)NO)CC4)ccc3OCC)nc12 (stereo not drawn) [Example 1-51]
